{"source": "patent US10550105B2", "about": "(Ribon Therapeutics Inc., priority 2018, dated 2020)", "target": "PARP7 (Homo sapiens (Human), UniProt Q7Z3E1)", "sequence (Q7Z3E1 whole entry)": "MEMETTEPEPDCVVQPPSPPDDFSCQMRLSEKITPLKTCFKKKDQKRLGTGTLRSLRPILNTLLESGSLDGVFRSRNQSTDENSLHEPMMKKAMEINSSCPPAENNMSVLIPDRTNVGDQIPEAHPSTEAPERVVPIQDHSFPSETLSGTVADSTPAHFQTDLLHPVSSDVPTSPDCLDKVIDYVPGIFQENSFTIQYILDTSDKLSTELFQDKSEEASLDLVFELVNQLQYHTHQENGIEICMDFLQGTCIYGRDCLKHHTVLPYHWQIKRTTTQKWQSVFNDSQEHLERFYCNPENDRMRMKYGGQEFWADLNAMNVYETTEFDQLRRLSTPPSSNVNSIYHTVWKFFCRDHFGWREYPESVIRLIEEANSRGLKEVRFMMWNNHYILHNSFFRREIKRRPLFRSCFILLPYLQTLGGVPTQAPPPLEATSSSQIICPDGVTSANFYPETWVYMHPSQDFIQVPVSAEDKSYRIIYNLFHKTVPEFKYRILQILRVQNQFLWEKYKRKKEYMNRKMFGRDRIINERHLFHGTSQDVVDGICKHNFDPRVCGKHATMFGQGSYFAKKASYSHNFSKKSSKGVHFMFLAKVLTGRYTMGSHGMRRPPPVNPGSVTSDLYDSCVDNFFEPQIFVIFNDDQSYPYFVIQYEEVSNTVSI", "experiment": "Enzymatic assay for inhibition of PARP7: TR-FRET displacement of biotinylated Probe A from the TIPARP active site", "assay_type": "binding", "details": "Table A-1", "method_in_brief": "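Compounds were tested as dose-response series, and reactions were incubated a further 30 min at 25° C. TR-FRET was read at 320 nm excitation with 615 and 665 nm emission after a 90 μs delay. The 665/615 ratio gave the TIPARP–Probe A complex, and % inhibition was fitted against concentration.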"}
{"molecule": "O=C(c1cncc(OC[C@@H]2c3ccccc3CN2c2cn[nH]c(=O)c2C(F)(F)F)c1)N1CCN(c2ncc(C(F)(F)F)cn2)CC1", "note": "[Example 392, (S)-4-(Trifluoromethyl)-5-(1-(((5-(4-(5-(trifluoromethyl)pyrimidin-2-yl)piperazine-1-carbonyl)pyridin-3-yl)oxy)methyl)isoindolin-2-yl)pyridazin-3(2H)-one]", "values": [{"measurement": "IC50", "result": "< 100", "unit": "nM"}]}
{"molecule": "O=C(c1cncc(OC[C@H]2c3ccccc3CN2c2cn[nH]c(=O)c2C(F)(F)F)c1)N1CCN(c2ncc(C(F)(F)F)cn2)CC1", "note": "[Example 393, (R)-4-(Trifluoromethyl)-5-(1-(((5-(4-(5-(trifluoromethyl)pyrimidin-2-yl)piperazine-1-carbonyl)pyridin-3-yl)oxy)methyl)isoindolin-2-yl)pyridazin-3(2H)-one]", "values": [{"measurement": "IC50", "result": "100 to 1000", "unit": "nM"}]}
{"molecule": "N#Cc1ccc(NCCC(=O)Nc2cccc(OCC3c4ccccc4CN3c3cn[nH]c(=O)c3C(F)(F)F)c2)nc1", "note": "(centres unmarked) [Example 394, 3-((5-Cyanopyridin-2-yl)amino)-N-(3-((2-(6-oxo-5-(trifluoromethyl)-1,6-dihydropyridazin-4-yl)isoindolin-1-yl)methoxy)phenyl)propanamide]", "values": [{"measurement": "IC50", "result": "< 100", "unit": "nM"}]}
{"molecule": "N#Cc1cnc(N2CCN(C(=O)c3cncc(OC[C@@H]4c5ccccc5CN4c4cn[nH]c(=O)c4C(F)(F)F)c3)CC2)nc1", "note": "[Example 395, (S)-2-(4-(5-((2-(6-Oxo-5-(trifluoromethyl)-1,6-dihydropyridazin-4-yl)isoindolin-1-yl)methoxy)nicotinoyl)piperazin-1-yl)pyrimidine-5-carbonitrile]", "values": [{"measurement": "IC50", "result": "< 100", "unit": "nM"}]}
{"molecule": "N#Cc1cnc(N2CCN(C(=O)c3cncc(OC[C@H]4c5ccccc5CN4c4cn[nH]c(=O)c4C(F)(F)F)c3)CC2)nc1", "note": "[Example 396, (R)-2-(4-(5-((2-(6-Oxo-5-(trifluoromethyl)-1,6-dihydropyridazin-4-yl)isoindolin-1-yl)methoxy)nicotinoyl)piperazin-1-yl)pyrimidine-5-carbonitrile]", "values": [{"measurement": "IC50", "result": "≥ 1000", "unit": "nM"}]}
{"molecule": "N#Cc1ccc(N2CCN(C(=O)c3cccc(OCC4c5ncccc5CN4c4cn[nH]c(=O)c4C(F)(F)F)c3)CC2)nc1", "note": "(centres unmarked) [Example 397, 6-(4-(3-((6-(6-Oxo-5-(trifluoromethyl)-1,6-dihydropyridazin-4-yl)-6,7-dihydro-5H-pyrrolo[3,4-b]pyridin-7-yl)methoxy)benzoyl)piperazin-1-yl)nicotinonitrile]", "values": [{"measurement": "IC50", "result": "< 100", "unit": "nM"}]}
{"molecule": "O=C(c1cccc(OCC2c3ccccc3CN2c2cn[nH]c(=O)c2C(F)(F)F)c1)N1CCn2ncnc2C1", "note": "(centres unmarked) [Example 398, 5-(1-((3-(5,6,7,8-Tetrahydro-[1,2,4]triazolo[1,5-a]pyrazine-7-carbonyl)phenoxy)methyl)isoindolin-2-yl)-4-(trifluoromethyl)pyridazin-3(2H)-one]", "values": [{"measurement": "IC50", "result": "< 100", "unit": "nM"}]}
{"molecule": "O=C(c1cccc(OCC2c3ccccc3CN2c2cn[nH]c(=O)c2C(F)(F)F)c1)N1CCn2nncc2C1", "note": "(centres unmarked) [Example 399, 5-(1-((3-(4,5,6,7-Tetrahydro-[1,2,3]triazolo[1,5-a]pyrazine-5-carbonyl)phenoxy)methyl)isoindolin-2-yl)-4-(trifluoromethyl)pyridazin-3(2H)-one]", "values": [{"measurement": "IC50", "result": "100 to 1000", "unit": "nM"}]}
{"molecule": "N#Cc1ccc(N2CCN(C(=O)c3ccc(OCc4cccc5c4CN(c4cn[nH]c(=O)c4C(F)(F)F)C5)cc3)CC2)nc1", "note": "[Example 400]", "values": [{"measurement": "IC50", "result": "< 100", "unit": "nM"}]}
{"molecule": "N#Cc1ccc(N2CCN(C(=O)c3cccc(OCCc4cccc5c4CN(c4cn[nH]c(=O)c4C(F)(F)F)C5)c3)CC2)nc1", "note": "[Example 401, 6-(4-(3-(2-(2-(6-Oxo-5-(trifluoromethyl)-1,6-dihydropyridazin-4-yl)isoindolin-4-yl)ethoxy)benzoyl)piperazin-1-yl)nicotinonitrile]", "values": [{"measurement": "IC50", "result": "< 100", "unit": "nM"}]}
{"molecule": "N#Cc1ccc(N2CCN(C(=O)c3ccc(OCCc4cccc5c4CN(c4cn[nH]c(=O)c4C(F)(F)F)C5)cc3)CC2)nc1", "note": "[Example 402, 6-(4-(4-(2-(2-(6-Oxo-5-(trifluoromethyl)-1,6-dihydropyridazin-4-yl)isoindolin-4-yl)ethoxy)benzoyl)piperazin-1-yl)nicotinonitrile]", "values": [{"measurement": "IC50", "result": "< 100", "unit": "nM"}]}
{"molecule": "Cc1ccc(N2CCN(C(=O)c3cccc(OCC4c5ccccc5CN4c4cn[nH]c(=O)c4C(F)(F)F)c3)CC2)nc1", "note": "(centres unmarked) [Example 403, 5-(1-((3-(4-(5-Methylpyridin-2-yl)piperazine-1-carbonyl)phenoxy)methyl)isoindolin-2-yl)-4-(trifluoromethyl)pyridazin-3(2H)-one]", "values": [{"measurement": "IC50", "result": "< 100", "unit": "nM"}]}
{"molecule": "O=C(c1cccc(OCC2c3ccccc3CN2c2cn[nH]c(=O)c2C(F)(F)F)c1)N1CCn2nccc2C1", "note": "(centres unmarked) [Example 404, 5-(1-((3-(4,5,6,7-Tetrahydropyrazolo[1,5-a]pyrazine-5-carbonyl)phenoxy)methyl)isoindolin-2-yl)-4-(trifluoromethyl)pyridazin-3(2H)-one]", "values": [{"measurement": "IC50", "result": "100 to 1000", "unit": "nM"}]}
{"molecule": "CC(=O)N1CCN(C(=O)c2cccc(OCC3c4ccccc4CN3c3cn[nH]c(=O)c3C(F)(F)F)c2)CC1", "note": "(centres unmarked) [Example 405, 5-(1-((3-(4-Acetylpiperazine-1-carbonyl)phenoxy)methyl)isoindolin-2-yl)-4-(trifluoromethyl)pyridazin-3(2H)-one]", "values": [{"measurement": "IC50", "result": "< 100", "unit": "nM"}]}
{"molecule": "CC(=O)N1CCN(C(=O)c2cccc(OC[C@H]3c4ccccc4CN3c3cn[nH]c(=O)c3C(F)(F)F)c2)CC1", "note": "[Example 406, (R)-5-(1-((3-(4-Acetylpiperazine-1-carbonyl)phenoxy)methyl)isoindolin-2-yl)-4-(trifluoromethyl)pyridazin-3(2H)-one]", "values": [{"measurement": "IC50", "result": "≥ 1000", "unit": "nM"}]}
{"molecule": "CC(=O)N1CCN(C(=O)c2cccc(OC[C@@H]3c4ccccc4CN3c3cn[nH]c(=O)c3C(F)(F)F)c2)CC1", "note": "[Example 407, (S)-5-(1-((3-(4-Acetylpiperazine-1-carbonyl)phenoxy)methyl)isoindolin-2-yl)-4-(trifluoromethyl)pyridazin-3(2H)-one]", "values": [{"measurement": "IC50", "result": "< 100", "unit": "nM"}]}
{"molecule": "N#Cc1ccc(N2CCN(C(=O)CCCOCC3c4ccccc4CN3c3cn[nH]c(=O)c3C(F)(F)F)CC2)nc1", "note": "(centres unmarked) [Example 408, 6-(4-(4-((2-(6-Oxo-5-(trifluoromethyl)-1,6-dihydropyridazin-4-yl)isoindolin-1-yl)methoxy)butanoyl)piperazin-1-yl)nicotinonitrile]", "values": [{"measurement": "IC50", "result": "< 100", "unit": "nM"}]}
{"molecule": "N#Cc1ccc(N2CCN(C(=O)CCCOC[C@H]3c4ccccc4CN3c3cn[nH]c(=O)c3C(F)(F)F)CC2)nc1", "note": "[Example 409, (R)-6-(4-(4-((2-(6-Oxo-5-(trifluoromethyl)-1,6-dihydropyridazin-4-yl)isoindolin-1-yl)methoxy)butanoyl)piperazin-1-yl)nicotinonitrile]", "values": [{"measurement": "IC50", "result": "100 to 1000", "unit": "nM"}]}
{"molecule": "N#Cc1ccc(N2CCN(C(=O)CCCOC[C@@H]3c4ccccc4CN3c3cn[nH]c(=O)c3C(F)(F)F)CC2)nc1", "note": "[Example 410, (S)-6-(4-(4-((2-(6-Oxo-5-(trifluoromethyl)-1,6-dihydropyridazin-4-yl)isoindolin-1-yl)methoxy)butanoyl)piperazin-1-yl)nicotinonitrile]", "values": [{"measurement": "IC50", "result": "< 100", "unit": "nM"}]}
{"molecule": "N#Cc1ccc(N2CCN(C(=O)CCCOCC3c4ncccc4CN3c3cn[nH]c(=O)c3C(F)(F)F)CC2)nc1", "note": "(centres unmarked) [Example 411, 6-(4-(4-((6-(6-Oxo-5-(trifluoromethyl)-1,6-dihydropyridazin-4-yl)-6,7-dihydro-5H-pyrrolo[3,4-b]pyridin-7-yl)methoxy)butanoyl)piperazin-1-yl)nicotinonitrile]", "values": [{"measurement": "IC50", "result": "< 100", "unit": "nM"}]}
{"molecule": "N#Cc1ccc(N2CCN(C(=O)CCOCC3c4ncccc4CN3c3cn[nH]c(=O)c3C(F)(F)F)CC2)nc1", "note": "(centres unmarked) [Example 412, 6-(4-(3-((6-(6-Oxo-5-(trifluoromethyl)-1,6-dihydropyridazin-4-yl)-6,7-dihydro-5H-pyrrolo[3,4-b]pyridin-7-yl)methoxy)propanoyl)piperazin-1-yl)nicotinonitrile]", "values": [{"measurement": "IC50", "result": "< 100", "unit": "nM"}]}
{"molecule": "N#Cc1ccc(N2CCN(C(=O)CCOC[C@@H]3c4ccccc4CN3c3cn[nH]c(=O)c3Cl)CC2)nc1", "note": "[Example 413, (S)-6-(4-(3-((2-(5-Chloro-6-oxo-1,6-dihydropyridazin-4-yl)isoindolin-1-yl)methoxy)propanoyl)piperazin-1-yl)nicotinonitrile]", "values": [{"measurement": "IC50", "result": "< 100", "unit": "nM"}]}
{"molecule": "N#Cc1ccc(N2CCN(C(=O)CCOC[C@H]3c4ccccc4CN3c3cn[nH]c(=O)c3Cl)CC2)nc1", "note": "[Example 414, (R)-6-(4-(3-((2-(5-Chloro-6-oxo-1,6-dihydropyridazin-4-yl)isoindolin-1-yl)methoxy)propanoyl)piperazin-1-yl)nicotinonitrile]", "values": [{"measurement": "IC50", "result": "100 to 1000", "unit": "nM"}]}
{"molecule": "O=C(CCOC[C@@H]1c2ccccc2CN1c1cn[nH]c(=O)c1Cl)N1CCN(c2ncc(C(F)(F)F)cn2)CC1", "note": "[Example 415, (S)-4-Chloro-5-(1-((3-oxo-3-(4-(5-(trifluoromethyl)pyrimidin-2-yl)piperazin-1-yl)propoxy)methyl)isoindolin-2-yl)pyridazin-3(2H)-one]", "values": [{"measurement": "IC50", "result": "< 100", "unit": "nM"}]}
{"molecule": "O=C(CCOC[C@H]1c2ccccc2CN1c1cn[nH]c(=O)c1Cl)N1CCN(c2ncc(C(F)(F)F)cn2)CC1", "note": "[Example 416, (R)-4-Chloro-5-(1-((3-oxo-3-(4-(5-(trifluoromethyl)pyrimidin-2-yl)piperazin-1-yl)propoxy)methyl)isoindolin-2-yl)pyridazin-3(2H)-one]", "values": [{"measurement": "IC50", "result": "100 to 1000", "unit": "nM"}]}
{"molecule": "O=C(CCOC[C@@H]1c2ccccc2CN1c1cn[nH]c(=O)c1C(F)(F)F)N1CCNCC1", "note": "[Example 417, (S)-5-(1-((3-Oxo-3-(piperazin-1-yl)propoxy)methyl)isoindolin-2-yl)-4-(trifluoromethyl)pyridazin-3(2H)-one]", "values": [{"measurement": "IC50", "result": "100 to 1000", "unit": "nM"}]}
{"molecule": "O=C(CCOC[C@H]1c2ccccc2CN1c1cn[nH]c(=O)c1C(F)(F)F)N1CCNCC1", "note": "[Example 418, (R)-5-(1-((3-Oxo-3-(piperazin-1-yl)propoxy)methyl)isoindolin-2-yl)-4-(trifluoromethyl)pyridazin-3(2H)-one 0.4 formic acid]", "values": [{"measurement": "IC50", "result": "≥ 1000", "unit": "nM"}]}
{"molecule": "CC(=O)N1CCN(C(=O)CCOC[C@@H]2c3ccccc3CN2c2cn[nH]c(=O)c2C(F)(F)F)CC1", "note": "[Example 419, (S)-5-(1-((3-(4-Acetylpiperazin-1-yl)-3-oxopropoxy)methyl)isoindolin-2-yl)-4-(trifluoromethyl)pyridazin-3(2H)-one]", "values": [{"measurement": "IC50", "result": "< 100", "unit": "nM"}]}
{"molecule": "CC(=O)N1CCN(C(=O)CCOC[C@H]2c3ccccc3CN2c2cn[nH]c(=O)c2C(F)(F)F)CC1", "note": "[Example 420, (R)-5-(1-((3-(4-Acetylpiperazin-1-yl)-3-oxopropoxy)methyl)isoindolin-2-yl)-4-(trifluoromethyl)pyridazin-3(2H)-one]", "values": [{"measurement": "IC50", "result": "≥ 1000", "unit": "nM"}]}
